From US20210395210A1, “INHIBITION OF BACTERIAL CHAPERONIN SYSTEMS” (THE TRUSTEES OF INDIANA UNIVERSITY, priority 2018, published 2021)
Like-named read-outs stand apart in the source and are kept apart here. One block for each compound: values may come before it.

Columns and labels:
native MDH = target: T1, native MDH (Sus scrofa, UniProt P00346); assay: Counter-screen for inhibition of native MDH enzymatic activity; format: biochemical, pig
T1 construct: soluble pig heart MDH from Roche, product #10127248001; purchased Roche 10127248001; host or cells: pig heart
T1 sequence (P00346 25-338): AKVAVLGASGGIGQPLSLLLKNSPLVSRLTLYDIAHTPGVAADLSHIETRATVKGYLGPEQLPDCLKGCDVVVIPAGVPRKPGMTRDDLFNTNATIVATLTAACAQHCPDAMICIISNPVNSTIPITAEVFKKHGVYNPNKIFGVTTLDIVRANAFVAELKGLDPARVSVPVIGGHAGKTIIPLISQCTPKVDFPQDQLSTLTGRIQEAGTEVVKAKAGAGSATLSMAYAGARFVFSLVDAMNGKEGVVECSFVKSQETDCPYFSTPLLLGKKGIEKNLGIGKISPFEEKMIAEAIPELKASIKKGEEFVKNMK
Description: Reagent Preparations & Assay Protocol: This assay was performed as described above for the GroEL/ES-dMDH refolding assay; however, the assay protocol differed in the sequence of compound addition to the assay plates. The refolding reactions were allowed to proceed for 45 min at 37° C. in the absence of test compounds (complete refolding of MDH occurs), then quenched with the EDTA stock. Compounds were then pin-transferred into the plates after the EDTA quenching step; thus, compounds effects are only possible by inhibiting the fully-refolded MDH reporter substrate. […] A340 nm measurements were recorded at 0.5 minutes (start point) and at successive time points until the amount of NADH consumed reached ˜90% (end point, generally between 20-35 minutes). Compounds were tested in 8-point, 3-fold dilution series (62.5 μM to 29 nM during the reporter reaction) in clear, flat-bottom 384-well microtiter plates. DMSO was used as a negative control, and previously discovered native MDH inhibitors were used as positive controls. […] Results presented represent the averages of IC50 values obtained from at least quadriplicate (duplicate of duplicate) replicates.

[1] = system: Pseudomonas aeruginosa (ATCC 10145); assay: Bacterial proliferation assay, P. aeruginosa; format: cell-based
From the text: (§1) Bacterial Strains: Enterococcus faecium—(Orla-Jensen) Schleifer and Kilpper-Balz strain NCTC 7171 (ATCC 19434); Drug sensitive Staphylococcus aureus—Rosenbranch strain Seattle 1945 (ATCC 25923); Methicillin resistant S. aureus (MRSA)—Rosenbach strain HPV107 (ATCC BAA-44); Klebsiella Pneumonia—(Schroeter) Trevisan strain NCTC 9633 (ATCC 13883); Acinetobacter baumannii—Bouvet and Grimont strain 2208 (ATCC 19606); Pseudomonas aeruginosa—(Schroeter) Migula strain NCTC 10332 (ATCC 10145); Enterobacter cloacae—E. cloacae, subsp. cloacae (Jordan) Hormaeche and Edwards strain CDC 442-68 (ATCC 13047).
(§2) Growth Media: All bacteria were grown in Brain Heart Infusion (BHI) broth/agar (Becton, Dickinson and Company). All liquid cultures were grown in BHI media supplemented with 25 mg/L Ca^2+ and 12.5 mg/L Mg^2+ to mimic free physiological concentrations of these cations. A 10 mg/mL Ca^2+ stock solution was prepared by dissolving 3.68 g of CaCl2.2H2O in 100 mL of deionized water, and a 10 mg/mL Mg^2+ stock solution was prepared by dissolving 8.36 g of MgCl2.6H2O in 100 mL deionized water. Both stock solutions were filter-sterilized using 0.2 μm pore size cellulose-acetate filters. 2.5 mL of the sterile 10 mg/mL Ca^2+ stock and 1.25 mL of the sterile 10 mg/mL Mg^2+ stock solutions were added per 1 L of autoclaved BHI medium to obtain 25 mg/L Ca^2+ and 12.5 mg/L Mg^2+ ions, respectively.
(§3) General Assay Protocol: Stock bacterial cultures were streaked onto BHI agar plates and grown overnight at 37° C. Fresh aliquots of broth were inoculated with single bacterial colonies and the cultures were grown overnight at 37° C. with shaking (240 rpm) in cation adjusted BHI media. The following morning, the overnight cultures were sub-cultured (1:5 dilution) into fresh aliquots of cation adjusted BHI media and grown at 37° C. for 1-2 hours with shaking. After 2 h, cultures were diluted into fresh media to achieve final OD600 readings of 0.017. Aliquots of these diluted cultures (30 μL) were added to clear, flat-bottom, 384-well polystyrene plates that were stamped with 0.5 μL of test compounds in 20 μL media. […] Plates were sealed with “Breathe Easy” oxygen permeable membranes (Diversified Biotech) and left to incubate at 37° C. without shaking (stagnant assay). OD600 nm readings were taken at either 6-8 h (S. aureus, MRSA, K. pneumonia, E. cloacae, and P. aeruginosa) or 24 h (E. faecium and A. baumannii). A second set of baseline control plates were prepared analogously, but without any bacteria added, to correct for possible compound absorbance and/or precipitation. Plates were then read at 600 nm using a Molecular Devices SpectraMax Plus384 microplate reader. […] Results presented represent the averages of EC50 values obtained from at quadriplicate (duplicate of duplicate) replicates.

[2] = system: Klebsiella Pneumonia (ATCC 13883); assay: Bacterial proliferation assay, K. pneumoniae; format: cell-based
From the text: as §1, §2, §3

[3] = system: Drug sensitive Staphylococcus aureus (ATCC 25923); assay: Bacterial proliferation assay, drug sensitive S. aureus; format: cell-based
From the text: as §1, §2, §3

[4] = system: Enterobacter cloacae (ATCC 13047); assay: Bacterial proliferation assay, E. cloacae; format: cell-based
From the text: as §1, §2, §3

[5] = log of IC50 (μM scale), with standard deviation, read-out: log(IC50) Native MDH Reporter (converted)
[6] = ATCC10145, OD600 at 6-8 h, read-out: Bacterial Proliferation EC50 P. aeruginosa
[7] = ATCC10145, log of EC50 (μM scale), with standard deviation, read-out: log(EC50) Bacterial Proliferation Assay P. aeruginosa (converted)
[8] = ATCC13883, OD600 at 6-8 h, read-out: Bacterial Proliferation EC50 K. pneumoniae
[9] = ATCC13883, log of EC50 (μM scale), with standard deviation, read-out: log(EC50) Bacterial Proliferation Assay K. pneumoniae (converted)
[10] = ATCC25923, OD600 at 6-8 h, read-out: Bacterial Proliferation EC50 S. aureus Sensitive
[11] = ATCC25923, log of EC50 (μM scale), with standard deviation, read-out: log(EC50) Bacterial Proliferation Assay S. aureus Sensitive (converted)
[12] = ATCC13047, OD600 at 6-8 h, read-out: Bacterial Proliferation EC50 E. cloacae
[13] = ATCC13047, log of EC50 (μM scale), with standard deviation, read-out: log(EC50) Bacterial Proliferation Assay E. cloacae (converted)
[14] = read-out: Biochemical Assay IC50 Native MDH Reporter
[15] = ATCC10145, read-out: Bacterial Proliferation EC50 P. aeruginosa
[16] = ATCC10145, read-out: log(EC50) Bacterial Proliferation Assay P. aeruginosa (converted)
[17] = ATCC13883, read-out: Bacterial Proliferation EC50 K. pneumoniae
[18] = ATCC13883, read-out: log(EC50) Bacterial Proliferation Assay K. pneumoniae (converted)
[19] = ATCC25923, read-out: Bacterial Proliferation EC50 S. aureus Sensitive
[20] = ATCC25923, read-out: log(EC50) Bacterial Proliferation Assay S. aureus Sensitive (converted)
[21] = ATCC13047, read-out: Bacterial Proliferation EC50 E. cloacae
[22] = ATCC13047, read-out: log(EC50) Bacterial Proliferation Assay E. cloacae (converted)

IC50 (native MDH; [5]): > 63.1 µM
EC50 [1, 6]: > 100 µM
EC50 [1, 7]: > 100 µM
EC50 [3, 10]: 1.3 µM
EC50 [3, 11]: 1.32 µM
EC50 [4, 12]: > 100 µM
EC50 [4, 13]: > 100 µM
Compound: O=C(Nc1cccc(Cl)c1)c1cccc(Br)c1O [Compound 10, 3-Bromo-N-(3-chlorophenyl)-2-hydroxybenzamide]
EC50 [2, 8]: > 100 µM
EC50 [2, 9]: > 100 µM

Compound: O=C(Nc1cccc(Cl)c1)c1cc(Br)ccc1O [Compound 11, 5-Bromo-N-(3-chlorophenyl)-2-hydroxybenzamide]
IC50 (native MDH; [5]): > 63.1 µM
IC50 (native MDH; [14]): > 63 µM
EC50 [1, 15]: > 100 µM
EC50 [1, 16]: > 100 µM
EC50 [2, 17]: > 100 µM
EC50 [2, 18]: > 100 µM
EC50 [3, 19]: 0.46 µM
EC50 ([3]; ATCC25923, read-out: S. aureus Proliferation & Biofilm Assay EC50 Planktonic Growth): 0.46 µM
EC50 [3, 20]: 0.457 µM
EC50 [4, 21]: > 100 µM
EC50 [4, 22]: > 100 µM

Compound: O=C(Nc1cccc(Cl)c1)c1ccccc1O [Compound 12, N-(3-Chlorophenyl)-2-hydroxybenzamide]
IC50 (native MDH; [5]): > 63.1 µM
IC50 (native MDH; [14]): > 63 µM
EC50 [1, 6]: > 100 µM
EC50 [1, 7]: > 100 µM
EC50 [2, 8]: > 100 µM
EC50 [2, 9]: > 100 µM
EC50 [3, 10]: 3.1 µM
EC50 [3, 11]: 3.09 µM
EC50 [4, 12]: > 100 µM
EC50 [4, 13]: > 100 µM

Compound: O=C(Nc1ccccc1)c1cc(Br)cc(Br)c1O [Compound 13, 3,5-Dibromo-2-hydroxy-N-phenylbenzamide]
IC50 (native MDH; [5]): 50.1 µM
IC50 (native MDH; [14]): 51 µM
EC50 [1, 15]: > 100 µM
EC50 [1, 16]: > 100 µM
EC50 [2, 17]: > 100 µM
EC50 [2, 18]: > 100 µM
EC50 [3, 19]: 1.2 µM
EC50 [3, 20]: 1.23 µM
EC50 [4, 21]: > 100 µM
EC50 [4, 22]: > 100 µM

Compound: O=C(Nc1ccccc1)c1cccc(Br)c1O [Compound 14, 3-Bromo-2-hydroxy-N-phenylbenzamide]
IC50 (native MDH; [5]): > 63.1 µM
IC50 (native MDH; [14]): > 63 µM
EC50 [1, 6]: > 100 µM
EC50 [1, 7]: > 100 µM
EC50 [2, 8]: > 100 µM
EC50 [2, 9]: > 100 µM
EC50 [3, 10]: 6.4 µM
EC50 [3, 11]: 6.46 µM
EC50 [4, 12]: > 100 µM
EC50 [4, 13]: > 100 µM

Compound: O=C(Nc1ccccc1)c1cc(Br)ccc1O [Compound 15, 5-Bromo-2-hydroxy-N-phenylbenzamide]
IC50 (native MDH; [5]): > 63.1 µM
IC50 (native MDH; [14]): > 63 µM
EC50 [1, 6]: > 100 µM
EC50 [1, 7]: > 100 µM
EC50 [2, 8]: 78 µM
EC50 [2, 9]: 77.6 µM
EC50 [3, 10]: 2.8 µM
EC50 [3, 11]: 2.75 µM
EC50 [4, 12]: > 100 µM
EC50 [4, 13]: > 100 µM
